Like-named read-outs stand apart in the source and are kept apart here.
How the values were obtained:
[1] = format: physicochemical; conditions: stored at room temperature (21-25° C.)
Description: At each time period, 0.05 g of powder was dissolved in 10 ml-15 of ethanol, diluted to fall within the analytical range, and injected into the LCMSMS for analysis.

[2] = Stability of cannabinoid and Vitamin E components of Beverage 2 (AB Red) stored at 8° C. and 21-25° C., LCMSMS over 570 days
Description: The LCMSMS was calibrated for 0-50 ng/ml cannabinoids with the same resin material used in the preparation of the concentrates. At each time period, 100 μml of beverage was diluted with 10 ml of methanol and injected into the LCMSMS for analysis.

## CCCCCc1cc(O)c2c(c1)OC1(C)CCC3C1C2C3(C)C (stereo not shown) [CBL, cannabicyclol]
[1]; day 0
  Stability in Powder Concentrate (content by LCMSMS): 0.050 mg/g powder
[1]; day 1
  Stability in Powder Concentrate (content by LCMSMS): 0.051 mg/g powder
[1]; day 2
  Stability in Powder Concentrate (content by LCMSMS): 0.049 mg/g powder
[1]; day 3
  Stability in Powder Concentrate (content by LCMSMS): 0.050 mg/g powder
[1]; day 5
  Stability in Powder Concentrate (content by LCMSMS): 0.052 mg/g powder
[1]; day 8
  Stability in Powder Concentrate (content by LCMSMS): 0.050 mg/g powder
[1]; day 9
  Stability in Powder Concentrate (content by LCMSMS): 0.050 mg/g powder
[1]; day 10
  Stability in Powder Concentrate (content by LCMSMS): 0.050 mg/g powder
[1]; day 11
  Stability in Powder Concentrate (content by LCMSMS): 0.052 mg/g powder
[1]; day 12
  Stability in Powder Concentrate (content by LCMSMS): 0.052 mg/g powder
[1]; day 15
  Stability in Powder Concentrate (content by LCMSMS): 0.048 mg/g powder
[1]; day 16
  Stability in Powder Concentrate (content by LCMSMS): 0.049 mg/g powder
[1]; day 17
  Stability in Powder Concentrate (content by LCMSMS): 0.049 mg/g powder
[1]; day 18
  Stability in Powder Concentrate (content by LCMSMS): 0.052 mg/g powder
[1]; day 19
  Stability in Powder Concentrate (content by LCMSMS): 0.052 mg/g powder
[1]; day 22
  Stability in Powder Concentrate (content by LCMSMS): 0.051 mg/g powder
[1]; day 23
  Stability in Powder Concentrate (content by LCMSMS): 0.051 mg/g powder
[1]; day 24
  Stability in Powder Concentrate (content by LCMSMS): 0.050 mg/g powder
[1]; day 25
  Stability in Powder Concentrate (content by LCMSMS): 0.050 mg/g powder
[1]; day 26
  Stability in Powder Concentrate (content by LCMSMS): 0.051 mg/g powder
[1]; day 29
  Stability in Powder Concentrate (content by LCMSMS): 0.048 mg/g powder
[1]; day 30
  Stability in Powder Concentrate (content by LCMSMS): 0.051 mg/g powder
[1]; day 60
  Stability in Powder Concentrate (content by LCMSMS): 0.050 mg/g powder
[1]; day 90
  Stability in Powder Concentrate (content by LCMSMS): 0.050 mg/g powder
[1]; day 120
  Stability in Powder Concentrate (content by LCMSMS): 0.048 mg/g powder
[1]; day 150
  Stability in Powder Concentrate (content by LCMSMS): 0.050 mg/g powder
[1]; day 180
  Stability in Powder Concentrate (content by LCMSMS): 0.049 mg/g powder
[1]; day 210
  Stability in Powder Concentrate (content by LCMSMS): 0.052 mg/g powder
[1]; day 240
  Stability in Powder Concentrate (content by LCMSMS): 0.049 mg/g powder
[1]; day 270
  Stability in Powder Concentrate (content by LCMSMS): 0.051 mg/g powder
[1]; day 300
  Stability in Powder Concentrate (content by LCMSMS): 0.050 mg/g powder
[1]; day 330
  Stability in Powder Concentrate (content by LCMSMS): 0.049 mg/g powder
[1]; day 360
  Stability in Powder Concentrate (content by LCMSMS): 0.050 mg/g powder
[1]; day 390
  Stability in Powder Concentrate (content by LCMSMS): 0.052 mg/g powder
[1]; day 420
  Stability in Powder Concentrate (content by LCMSMS): 0.050 mg/g powder
[1]; day 450
  Stability in Powder Concentrate (content by LCMSMS): 0.052 mg/g powder
[1]; day 480
  Stability in Powder Concentrate (content by LCMSMS): 0.051 mg/g powder
[1]; day 510
  Stability in Powder Concentrate (content by LCMSMS): 0.050 mg/g powder
[1]; day 540
  Stability in Powder Concentrate (content by LCMSMS): 0.048 mg/g powder
[1]; day 570
  Stability in Powder Concentrate (content by LCMSMS): 0.050 mg/g powder
[2]; 8° C., 0 days
  Stability of Cannabinoids in AB Red: 0.510 µg/mL
[2]; 8° C., 1 days
  Stability of Cannabinoids in AB Red: 0.512 µg/mL
[2]; 8° C., 2 days
  Stability of Cannabinoids in AB Red: 0.508 µg/mL
[2]; 8° C., 3 days
  Stability of Cannabinoids in AB Red: 0.499 µg/mL
[2]; 8° C., 5 days
  Stability of Cannabinoids in AB Red: 0.501 µg/mL
[2]; 8° C., 8 days
  Stability of Cannabinoids in AB Red: 0.496 µg/mL
[2]; 8° C., 9 days
  Stability of Cannabinoids in AB Red: 0.496 µg/mL
[2]; 8° C., 10 days
  Stability of Cannabinoids in AB Red: 0.505 µg/mL
[2]; 8° C., 11 days
  Stability of Cannabinoids in AB Red: 0.501 µg/mL
[2]; 8° C., 12 days
  Stability of Cannabinoids in AB Red: 0.499 µg/mL
[2]; 8° C., 15 days
  Stability of Cannabinoids in AB Red: 0.510 µg/mL
[2]; 8° C., 16 days
  Stability of Cannabinoids in AB Red: 0.502 µg/mL
[2]; 8° C., 17 days
  Stability of Cannabinoids in AB Red: 0.514 µg/mL
[2]; 8° C., 18 days
  Stability of Cannabinoids in AB Red: 0.513 µg/mL
[2]; 8° C., 19 days
  Stability of Cannabinoids in AB Red: 0.510 µg/mL
[2]; 8° C., 22 days
  Stability of Cannabinoids in AB Red: 0.495 µg/mL
[2]; 8° C., 23 days
  Stability of Cannabinoids in AB Red: 0.502 µg/mL
[2]; 8° C., 24 days
  Stability of Cannabinoids in AB Red: 0.508 µg/mL
[2]; 8° C., 25 days
  Stability of Cannabinoids in AB Red: 0.510 µg/mL
[2]; 8° C., 26 days
  Stability of Cannabinoids in AB Red: 0.502 µg/mL
[2]; 8° C., 29 days
  Stability of Cannabinoids in AB Red: 0.511 µg/mL
[2]; 8° C., 30 days
  Stability of Cannabinoids in AB Red: 0.511 µg/mL
[2]; 8° C., 60 days
  Stability of Cannabinoids in AB Red: 0.491 µg/mL
[2]; 8° C., 90 days
  Stability of Cannabinoids in AB Red: 0.501 µg/mL
[2]; 8° C., 120 days
  Stability of Cannabinoids in AB Red: 0.488 µg/mL
[2]; 8° C., 150 days
  Stability of Cannabinoids in AB Red: 0.501 µg/mL
[2]; 8° C., 180 days
  Stability of Cannabinoids in AB Red: 0.506 µg/mL
[2]; 8° C., 210 days
  Stability of Cannabinoids in AB Red: 0.490 µg/mL
[2]; 8° C., 240 days
  Stability of Cannabinoids in AB Red: 0.490 µg/mL
[2]; 8° C., 270 days
  Stability of Cannabinoids in AB Red: 0.504 µg/mL
[2]; 8° C., 300 days
  Stability of Cannabinoids in AB Red: 0.489 µg/mL
[2]; 8° C., 330 days
  Stability of Cannabinoids in AB Red: 0.505 µg/mL
[2]; 8° C., 390 days
  Stability of Cannabinoids in AB Red: 0.491 µg/mL
[2]; 8° C., 420 days
  Stability of Cannabinoids in AB Red: 0.494 µg/mL
[2]; 8° C., 450 days
  Stability of Cannabinoids in AB Red: 0.492 µg/mL
[2]; 8° C., 480 days
  Stability of Cannabinoids in AB Red: 0.487 µg/mL
[2]; 8° C., 510 days
  Stability of Cannabinoids in AB Red: 0.468 µg/mL
[2]; 8° C., 540 days
  Stability of Cannabinoids in AB Red: 0.470 µg/mL
[2]; 8° C., 570 days
  Stability of Cannabinoids in AB Red: 0.469 µg/mL
[2]; 21-25° C., 0 days
  Stability of Cannabinoids in AB Red: 0.51 µg/mL
[2]; 21-25° C., 1 days
  Stability of Cannabinoids in AB Red: 0.50 µg/mL
[2]; 21-25° C., 2 days
  Stability of Cannabinoids in AB Red: 0.50 µg/mL
[2]; 21-25° C., 3 days
  Stability of Cannabinoids in AB Red: 0.50 µg/mL
[2]; 21-25° C., 5 days
  Stability of Cannabinoids in AB Red: 0.51 µg/mL
[2]; 21-25° C., 8 days
  Stability of Cannabinoids in AB Red: 0.50 µg/mL
[2]; 21-25° C., 9 days
  Stability of Cannabinoids in AB Red: 0.51 µg/mL
[2]; 21-25° C., 10 days
  Stability of Cannabinoids in AB Red: 0.50 µg/mL
[2]; 21-25° C., 11 days
  Stability of Cannabinoids in AB Red: 0.50 µg/mL
[2]; 21-25° C., 12 days
  Stability of Cannabinoids in AB Red: 0.50 µg/mL
[2]; 21-25° C., 15 days
  Stability of Cannabinoids in AB Red: 0.50 µg/mL
[2]; 21-25° C., 16 days
  Stability of Cannabinoids in AB Red: 0.51 µg/mL
[2]; 21-25° C., 17 days
  Stability of Cannabinoids in AB Red: 0.51 µg/mL
[2]; 21-25° C., 18 days
  Stability of Cannabinoids in AB Red: 0.50 µg/mL
[2]; 21-25° C., 19 days
  Stability of Cannabinoids in AB Red: 0.49 µg/mL
[2]; 21-25° C., 22 days
  Stability of Cannabinoids in AB Red: 0.49 µg/mL
[2]; 21-25° C., 23 days
  Stability of Cannabinoids in AB Red: 0.51 µg/mL
[2]; 21-25° C., 24 days
  Stability of Cannabinoids in AB Red: 0.50 µg/mL
[2]; 21-25° C., 25 days
  Stability of Cannabinoids in AB Red: 0.51 µg/mL
[2]; 21-25° C., 26 days
  Stability of Cannabinoids in AB Red: 0.51 µg/mL
[2]; 21-25° C., 29 days
  Stability of Cannabinoids in AB Red: 0.49 µg/mL
[2]; 21-25° C., 30 days
  Stability of Cannabinoids in AB Red: 0.51 µg/mL
[2]; 21-25° C., 60 days
  Stability of Cannabinoids in AB Red: 0.50 µg/mL
[2]; 21-25° C., 90 days
  Stability of Cannabinoids in AB Red: 0.49 µg/mL
[2]; 21-25° C., 120 days
  Stability of Cannabinoids in AB Red: 0.50 µg/mL
[2]; 21-25° C., 150 days
  Stability of Cannabinoids in AB Red: 0.49 µg/mL
[2]; 21-25° C., 180 days
  Stability of Cannabinoids in AB Red: 0.50 µg/mL
[2]; 21-25° C., 210 days
  Stability of Cannabinoids in AB Red: 0.49 µg/mL
[2]; 21-25° C., 240 days
  Stability of Cannabinoids in AB Red: 0.49 µg/mL
[2]; 21-25° C., 270 days
  Stability of Cannabinoids in AB Red: 0.49 µg/mL
[2]; 21-25° C., 300 days
  Stability of Cannabinoids in AB Red: 0.50 µg/mL
[2]; 21-25° C., 330 days
  Stability of Cannabinoids in AB Red: 0.50 µg/mL
[2]; 21-25° C., 390 days
  Stability of Cannabinoids in AB Red: 0.49 µg/mL
[2]; 21-25° C., 420 days
  Stability of Cannabinoids in AB Red: 0.48 µg/mL
[2]; 21-25° C., 450 days
  Stability of Cannabinoids in AB Red: 0.49 µg/mL
[2]; 21-25° C., 480 days
  Stability of Cannabinoids in AB Red: 0.48 µg/mL
[2]; 21-25° C., 510 days
  Stability of Cannabinoids in AB Red: 0.47 µg/mL
[2]; 21-25° C., 540 days
  Stability of Cannabinoids in AB Red: 0.47 µg/mL
[2]; 21-25° C., 570 days
  Stability of Cannabinoids in AB Red: 0.47 µg/mL

— patent US20240415914A1, “Water Dispersible Cannabinoid Compositions” (priority 2021, published 2024)
